Activity calls are given as the source filed them.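 How the source made its calls: active means compounds curbing yeast growth with fitted half-effect dose at most twice their top tested dose; inconclusive means flat fit at 30 to 70% inhibition, or poor fit; inactive means the rest.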
Key:
[1] = system: Candida glabrata growth in glucose, OD600, 48 h; assay: Candida glabrata glucose growth inhibition – glucose medium, OD600, dry powder, dose response (AID 602185)
[2] = as above; conditions: Candida glabrata growth in glucose, OD600, 48 h, active compounds read low

SMILES: O=C(Nc1nc(-c2ccccn2)cs1)c1ccc(Cl)s1
- AC50 [1]: 9.57 µM

SMILES: Cc1cc(C)n(-c2nc3ccccc3c(=O)n2OCC#N)n1
- max activity, negative = growth inhibition ([2]; at 19.5 µM): -17.9% (inactive)

SMILES: O=C(Nc1nc(-c2ccccn2)cs1)c1ccc(Br)s1
- AC50 [1]: 8.64 µM

SMILES: O=C(Nc1nc(-c2ccccc2)cs1)c1ccc(Br)s1
- max activity, negative = growth inhibition ([2]; at 0.3 µM): 11.1% (inactive)

SMILES: Cc1ccc(-c2nc3c(Cl)cc(Cl)cc3c(=O)n2O)cc1
- AC50 [1]: 1.75 µM

SMILES: COc1ccc(-c2nnc(NC(=O)c3ccc(S(=O)(=O)N4CCCc5ccccc54)cc3)o2)cc1
- max activity, negative = growth inhibition ([2]; at 0.3 µM): 12.6% (inactive)

SMILES: CN1CCN(C(c2ccc(C(F)(F)F)cc2)c2ccc3cccnc3c2O)CC1 (centres undefined)
- AC50 [1]: 2.18 µM

SMILES: Oc1c(CN2CCc3ccccc3C2)cc(Cl)c2cccnc12
- max activity, negative = growth inhibition ([2]; at 10 µM): 15.2% (inactive)

SMILES: CCOC(=O)N1C(=O)C2(CCCCC2)N(c2ccc(C)cc2)C1=S
- max activity, negative = growth inhibition ([2]; at 0.08 µM): 13.5% (inactive)

SMILES: Cc1ccc(C(=O)Nc2nc(-c3ccccn3)cs2)cc1
- max activity, negative = growth inhibition ([2]; at 19.5 µM): -34.8% (inactive)

SMILES: Oc1c(C(c2ccc(Cl)cc2)N2CCCC2)ccc2cccnc12 (centres undefined)
- max activity, negative = growth inhibition ([2]; at 1.2 µM): 12% (inactive)

SMILES: Oc1c(CN2CCN(c3ccccc3)CC2)cc(Cl)c2cccnc12
- max activity, negative = growth inhibition ([2]; at 0.35 µM): 12.9% (inactive)

SMILES: O=C(Nc1nnc(-c2ccc3c(c2)CCCC3)o1)c1ccccc1
- max activity, negative = growth inhibition ([2]; at 2.6 µM): -10.5% (inactive)

SMILES: O=C(Nc1nnc(-c2ccc3c(c2)CCCC3)o1)c1ccc(Cl)cc1Cl
- max activity, negative = growth inhibition ([2]; at 0.16 µM): 21% (inactive)

SMILES: O=C(Nc1nc(-c2ccc3c(c2)CCCC3)cs1)c1ccccc1
- max activity, negative = growth inhibition ([2]; at 0.3 µM): 19.6% (inactive)

SMILES: Cc1ccc(C(=O)Nc2nnc(-c3ccccc3)o2)cc1C
- max activity, negative = growth inhibition ([2]; at 0.16 µM): 18.7% (inactive)

SMILES: CCCC(=O)NC(c1cccs1)c1cc(Cl)c2cccnc2c1O (centres undefined)
- AC50 [1]: 3.27 µM

SMILES: O=C(Oc1c(Cl)cc(Cl)c2cccnc12)c1ccco1
- AC50 [1]: 1.14 µM

SMILES: C/C(=N\NC(=O)c1cc2ccccc2cc1O)c1ccccn1
- max activity, negative = growth inhibition ([2]; at 5 µM): 18.8% (inactive)

SMILES: C=CCNC(=S)N/N=C(\C)c1ccccn1
- AC50 [1]: 6.14 µM

SMILES: Oc1c(C(c2ccccc2Cl)N2CCCCC2)ccc2cccnc12 (centres undefined)
- max activity, negative = growth inhibition ([2]; at 19.5 µM): -24.3% (inactive)

SMILES: O=C(Nc1nc(-c2ccccn2)cs1)c1ccccc1
- max activity, negative = growth inhibition ([2]; at 19.5 µM): -14.7% (inactive)

SMILES: NC(=O)c1cccc(C(=O)Nc2nc(-c3ccc4c(c3)CCCC4)cs2)c1
- max activity, negative = growth inhibition ([2]; at 2.6 µM): 14.1% (inactive)

SMILES: O=C(NNC(=S)Nc1ccc(Cl)c(Cl)c1)c1ccccn1
- AC50 [1]: 10.1 µM

— PubChem BioAssay AID602185 (Broad Institute, 2012)
